Values quoted from earlier work as cited in US12357578B2, “Ibuprofen and famotidine tablet” (APPCO PHARMA LLC, priority 2020, dated 2025).

Row | SMILES | Solubility in organic solvents (in words) (organic solvents such as ethanol and acetone) | Solubility in water (water) | Solubility in water (in words) (water) | Solubility in ethanol (in words) (ethanol) | Solubility in glacial acetic acid (in words) (glacial acetic acid) | Solubility in methanol (in words) (methanol)
1 | CC(C)Cc1ccc(C(C)C(=O)O)cc1 (racemic) [Ibuprofen, (±)-2-(p-isobutylphenyl) propionic acid] | readily soluble | < 1000 µg/mL | very slightly soluble | – | – | –
2 | NC(N)=Nc1nc(CSCCC(N)=NS(N)(=O)=O)cs1 [Famotidine] | – | – | very slightly soluble | practically insoluble | freely soluble | slightly soluble
